Among the data in article PMC11357990, “A first-in-class selective inhibitor of EGFR and PI3K offers a single-molecule approach to targeting adaptive resistance” (Nature Cancer, 2024) are IC50 and inhibition values, retold here.

One assay deals with T1, PI3Kδ (Homo sapiens, UniProt O00329).
T1 construct: gene PIK3CD
The assay is described as follows: biochemical kinase assay at ATP Km apparent.

The target of assay [1] is T2, NK1 (h) (agonist radioligand) (Homo sapiens, UniProt P25103).
T2 construct: gene TACR1
T2 sequence (P25103 whole entry): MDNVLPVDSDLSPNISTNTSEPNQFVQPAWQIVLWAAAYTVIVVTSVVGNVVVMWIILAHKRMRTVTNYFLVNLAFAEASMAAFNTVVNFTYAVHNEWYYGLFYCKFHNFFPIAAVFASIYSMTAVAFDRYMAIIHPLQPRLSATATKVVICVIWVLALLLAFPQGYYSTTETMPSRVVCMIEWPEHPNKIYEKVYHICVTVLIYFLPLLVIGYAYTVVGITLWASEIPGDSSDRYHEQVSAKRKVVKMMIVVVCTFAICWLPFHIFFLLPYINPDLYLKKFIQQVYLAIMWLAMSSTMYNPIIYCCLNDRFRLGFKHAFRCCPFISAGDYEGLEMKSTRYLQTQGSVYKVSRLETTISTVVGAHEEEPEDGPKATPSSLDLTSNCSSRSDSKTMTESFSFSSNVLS
The assay is described as follows: biochemical. The settings on record: read-out: Binding / ================================================= / % Inhibition of Control Specific Binding.

Assay [2] concerns the target T3, H2 (h) (antagonist radioligand) (Homo sapiens, UniProt P25021).
T3 construct: gene HRH2
The assay is described as follows: biochemical. As to conditions: read-out: Binding / ================================================= / % Inhibition of Control Specific Binding.

In assay [3] the target is T4, M3 (h) (antagonist radioligand) (Homo sapiens, UniProt P20309).
T4 construct: gene CHRM3
T4 sequence (P20309 whole entry): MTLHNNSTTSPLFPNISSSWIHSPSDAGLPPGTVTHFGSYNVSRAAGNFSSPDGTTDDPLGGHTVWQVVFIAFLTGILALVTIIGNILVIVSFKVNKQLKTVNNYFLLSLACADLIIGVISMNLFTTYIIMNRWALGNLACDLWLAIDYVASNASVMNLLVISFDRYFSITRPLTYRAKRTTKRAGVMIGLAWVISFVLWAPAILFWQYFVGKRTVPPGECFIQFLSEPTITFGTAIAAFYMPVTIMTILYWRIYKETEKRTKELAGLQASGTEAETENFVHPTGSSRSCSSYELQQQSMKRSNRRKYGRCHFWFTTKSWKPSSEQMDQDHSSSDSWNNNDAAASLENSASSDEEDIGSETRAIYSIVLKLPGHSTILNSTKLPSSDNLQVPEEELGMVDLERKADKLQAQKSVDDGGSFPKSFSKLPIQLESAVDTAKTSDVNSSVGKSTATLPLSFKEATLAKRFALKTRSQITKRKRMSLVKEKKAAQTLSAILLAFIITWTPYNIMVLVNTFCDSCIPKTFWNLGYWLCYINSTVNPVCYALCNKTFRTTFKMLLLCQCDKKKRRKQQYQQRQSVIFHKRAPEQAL
The assay is described as follows: biochemical. The settings on record: read-out: Binding / ================================================= / % Inhibition of Control Specific Binding.

Assay [4] has as its target T5, PR (h) (agonist radioligand) (Homo sapiens, UniProt P06401).
T5 construct: gene PGR
The assay is described as follows: biochemical. The settings on record: read-out: Binding / ================================================= / % Inhibition of Control Specific Binding.

Assay [5] deals with T6, N neuronal alpha 4beta 2 (h) (agonist radioligand) (Homo sapiens, UniProt P17787+P43681).
T6 construct: gene CHRNB2
The assay is described as follows: biochemical. As to conditions: read-out: Binding / ================================================= / % Inhibition of Control Specific Binding.

Assay [6] has as its target T7, 5-HT1A (h) (agonist radioligand) (Homo sapiens, UniProt P08908).
T7 construct: gene HTR1A
The assay is described as follows: biochemical. The settings on record: read-out: Binding / ================================================= / % Inhibition of Control Specific Binding.

The target in assay [7] is T8, beta 1 (h) (agonist radioligand) (Homo sapiens, UniProt P08588).
T8 construct: gene ADRB1
The assay is described as follows: biochemical. As to conditions: read-out: Binding / ================================================= / % Inhibition of Control Specific Binding.

For assay [8], the target named is T9, D2L (h) (antagonist radioligand) (Homo sapiens, UniProt P14416).
T9 construct: gene DRD2
The assay is described as follows: biochemical. The settings on record: read-out: Binding / ================================================= / % Inhibition of Control Specific Binding.

Assay [9] has as its target T10, B2 (h) (agonist radioligand) (Homo sapiens, UniProt P30411).
T10 construct: gene BDKRB2
The assay is described as follows: biochemical. As to conditions: read-out: Binding / ================================================= / % Inhibition of Control Specific Binding.

Assay [10] addresses T11, CB2 (h) (agonist radioligand) (Homo sapiens, UniProt P34972).
T11 construct: gene CNR2
The assay is described as follows: biochemical. The settings on record: read-out: Binding / ================================================= / % Inhibition of Control Specific Binding.

In assay [11] the target is CCR1 (h) (agonist radioligand) (Homo sapiens, UniProt P32246). The assay is described as follows: biochemical. As to conditions: read-out: Binding / ================================================= / % Inhibition of Control Specific Binding.
Sequence of CCR1 (h) (agonist radioligand) (P32246 whole entry): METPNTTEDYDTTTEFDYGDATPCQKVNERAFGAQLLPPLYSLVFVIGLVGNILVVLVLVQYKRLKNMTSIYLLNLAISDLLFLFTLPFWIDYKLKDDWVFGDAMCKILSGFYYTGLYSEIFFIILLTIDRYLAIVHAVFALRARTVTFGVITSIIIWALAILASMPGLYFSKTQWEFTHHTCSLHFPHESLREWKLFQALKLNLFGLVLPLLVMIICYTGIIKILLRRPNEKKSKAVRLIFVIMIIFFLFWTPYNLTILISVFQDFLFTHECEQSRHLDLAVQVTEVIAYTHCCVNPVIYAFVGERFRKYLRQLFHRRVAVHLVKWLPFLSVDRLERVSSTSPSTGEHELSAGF
Assay [12] has as its target T12, dopamine transporter (h) (antagonist radioligand) (Homo sapiens, UniProt Q01959).
T12 construct: gene SLC6A3
The assay is described as follows: biochemical. As to conditions: read-out: Binding / ================================================= / % Inhibition of Control Specific Binding.

For assay [13], the target named is T13, CCK2 (CCKB) (h) (agonist radioligand) (Homo sapiens, UniProt P32239).
T13 construct: gene CCKBR
T13 sequence (P32239 whole entry): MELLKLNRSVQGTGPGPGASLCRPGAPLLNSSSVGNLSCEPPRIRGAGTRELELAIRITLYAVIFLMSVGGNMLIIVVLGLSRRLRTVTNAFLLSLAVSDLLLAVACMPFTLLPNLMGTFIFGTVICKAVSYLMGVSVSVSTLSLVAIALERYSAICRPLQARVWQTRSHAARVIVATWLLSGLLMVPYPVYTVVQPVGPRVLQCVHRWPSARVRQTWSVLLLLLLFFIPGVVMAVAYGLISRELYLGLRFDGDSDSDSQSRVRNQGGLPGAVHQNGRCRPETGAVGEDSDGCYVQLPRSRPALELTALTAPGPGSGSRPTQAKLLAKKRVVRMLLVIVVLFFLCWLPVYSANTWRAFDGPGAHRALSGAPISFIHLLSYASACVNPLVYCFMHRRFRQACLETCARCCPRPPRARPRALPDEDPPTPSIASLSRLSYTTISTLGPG
The assay is described as follows: biochemical. As to conditions: read-out: Binding / ================================================= / % Inhibition of Control Specific Binding.

Assay [14] addresses T14, mGluR5 (h) (agonist radioligand) (Homo sapiens, UniProt P41594).
T14 construct: gene GRM5
The assay is described as follows: biochemical. As to conditions: read-out: Binding / ================================================= / % Inhibition of Control Specific Binding.

Another assay concerns the target PI3Kγ (Homo sapiens, UniProt P48736). The assay is described as follows: X-ray cocrystal structure ([…] Å); purified kinase assay IC50. The format is biochemical. Also on record: gene PIK3CG; S144-A1102.

Sequence of PI3Kγ (P48736 144-1102): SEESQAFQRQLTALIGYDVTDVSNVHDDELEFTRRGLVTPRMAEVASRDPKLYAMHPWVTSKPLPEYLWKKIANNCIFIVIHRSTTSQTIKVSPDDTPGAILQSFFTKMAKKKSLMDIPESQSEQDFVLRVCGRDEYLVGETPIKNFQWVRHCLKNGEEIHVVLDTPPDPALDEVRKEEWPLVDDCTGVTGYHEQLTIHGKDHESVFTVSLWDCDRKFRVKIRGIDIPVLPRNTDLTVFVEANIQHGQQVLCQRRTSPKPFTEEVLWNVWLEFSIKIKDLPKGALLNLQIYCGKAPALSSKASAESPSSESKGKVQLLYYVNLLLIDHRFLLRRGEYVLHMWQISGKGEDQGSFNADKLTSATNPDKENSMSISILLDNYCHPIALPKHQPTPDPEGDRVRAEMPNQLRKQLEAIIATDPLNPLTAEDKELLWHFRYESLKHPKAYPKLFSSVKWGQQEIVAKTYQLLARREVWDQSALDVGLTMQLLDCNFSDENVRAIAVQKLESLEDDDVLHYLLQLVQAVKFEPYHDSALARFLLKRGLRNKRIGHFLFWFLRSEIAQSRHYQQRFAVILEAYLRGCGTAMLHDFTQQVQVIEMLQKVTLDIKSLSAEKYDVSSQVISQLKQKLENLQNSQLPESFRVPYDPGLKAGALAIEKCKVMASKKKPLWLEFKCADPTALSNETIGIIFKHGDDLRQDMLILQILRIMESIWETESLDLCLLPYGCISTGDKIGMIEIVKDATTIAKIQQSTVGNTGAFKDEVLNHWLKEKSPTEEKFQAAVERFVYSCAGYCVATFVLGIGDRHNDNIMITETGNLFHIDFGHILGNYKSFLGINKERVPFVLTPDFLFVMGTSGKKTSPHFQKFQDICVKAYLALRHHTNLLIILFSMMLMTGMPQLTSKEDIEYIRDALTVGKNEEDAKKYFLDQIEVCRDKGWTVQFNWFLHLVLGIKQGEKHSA
T11 sequence (P34972 whole entry): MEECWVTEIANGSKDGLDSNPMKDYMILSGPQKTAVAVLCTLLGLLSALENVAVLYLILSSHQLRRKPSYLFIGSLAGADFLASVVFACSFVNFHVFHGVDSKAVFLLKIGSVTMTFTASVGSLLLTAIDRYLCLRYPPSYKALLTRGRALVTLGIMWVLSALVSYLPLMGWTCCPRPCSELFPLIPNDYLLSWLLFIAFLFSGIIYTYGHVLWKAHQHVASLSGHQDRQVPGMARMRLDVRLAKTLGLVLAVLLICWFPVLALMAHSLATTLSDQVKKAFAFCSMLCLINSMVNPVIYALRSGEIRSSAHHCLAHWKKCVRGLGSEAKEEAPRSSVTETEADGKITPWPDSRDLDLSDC
T14 sequence (P41594 whole entry): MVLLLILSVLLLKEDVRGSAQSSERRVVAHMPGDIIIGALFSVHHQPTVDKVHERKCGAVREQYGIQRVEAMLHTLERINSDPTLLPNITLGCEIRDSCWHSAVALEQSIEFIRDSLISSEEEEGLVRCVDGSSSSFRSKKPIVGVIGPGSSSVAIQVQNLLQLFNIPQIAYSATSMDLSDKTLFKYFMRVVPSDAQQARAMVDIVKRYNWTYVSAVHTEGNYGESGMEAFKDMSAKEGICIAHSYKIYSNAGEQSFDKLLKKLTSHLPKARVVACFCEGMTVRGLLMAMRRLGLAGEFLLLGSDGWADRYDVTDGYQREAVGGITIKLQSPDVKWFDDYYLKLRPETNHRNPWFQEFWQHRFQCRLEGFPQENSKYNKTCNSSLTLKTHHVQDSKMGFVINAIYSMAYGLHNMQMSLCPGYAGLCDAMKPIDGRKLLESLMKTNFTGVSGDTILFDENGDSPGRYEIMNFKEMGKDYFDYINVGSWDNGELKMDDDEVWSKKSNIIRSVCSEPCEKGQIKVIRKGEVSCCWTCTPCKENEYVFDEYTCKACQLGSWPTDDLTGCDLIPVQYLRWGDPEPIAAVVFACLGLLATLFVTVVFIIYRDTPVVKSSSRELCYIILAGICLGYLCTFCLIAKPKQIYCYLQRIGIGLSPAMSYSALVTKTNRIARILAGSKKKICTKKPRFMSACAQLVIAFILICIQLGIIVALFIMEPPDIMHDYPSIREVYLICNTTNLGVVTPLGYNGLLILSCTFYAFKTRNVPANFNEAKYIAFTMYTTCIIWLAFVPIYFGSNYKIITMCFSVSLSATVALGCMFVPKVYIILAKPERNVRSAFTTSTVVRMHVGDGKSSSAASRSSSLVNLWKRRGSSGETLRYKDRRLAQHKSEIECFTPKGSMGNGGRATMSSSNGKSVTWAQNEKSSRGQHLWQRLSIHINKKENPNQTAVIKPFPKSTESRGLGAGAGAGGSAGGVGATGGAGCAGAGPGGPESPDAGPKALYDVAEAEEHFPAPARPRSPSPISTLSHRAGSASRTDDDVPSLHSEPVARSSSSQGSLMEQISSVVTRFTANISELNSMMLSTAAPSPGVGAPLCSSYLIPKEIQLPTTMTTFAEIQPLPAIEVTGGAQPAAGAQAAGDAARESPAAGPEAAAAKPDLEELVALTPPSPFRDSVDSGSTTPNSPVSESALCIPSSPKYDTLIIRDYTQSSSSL
T7 sequence (P08908 whole entry): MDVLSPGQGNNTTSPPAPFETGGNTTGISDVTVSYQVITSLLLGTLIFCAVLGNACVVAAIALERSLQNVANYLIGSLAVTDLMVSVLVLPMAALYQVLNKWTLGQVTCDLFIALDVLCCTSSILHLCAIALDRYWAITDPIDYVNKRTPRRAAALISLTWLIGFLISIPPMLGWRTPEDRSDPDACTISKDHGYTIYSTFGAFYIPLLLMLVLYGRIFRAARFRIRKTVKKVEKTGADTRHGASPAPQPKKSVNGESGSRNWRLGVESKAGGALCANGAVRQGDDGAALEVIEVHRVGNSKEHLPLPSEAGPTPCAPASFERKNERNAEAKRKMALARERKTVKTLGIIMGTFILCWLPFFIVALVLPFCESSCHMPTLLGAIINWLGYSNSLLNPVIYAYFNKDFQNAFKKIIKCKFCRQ

Usually IC50 stands for the concentration that gives 50% inhibition. In the case of `C[C@@H](Nc1ncnc2ccc(-c3cnc(Cl)c(NS(C)(=O)=O)c3)cc12)c1ccccc1` [MTX-531, (R)-N-(2-chloro-5-(4-((1-phenylethyl)amino)quinazolin-6-yl)pyridin-3-yl)methane-sulfonamide], the IC50 on PI3Kδ was 1.1 nM; against PI3Kγ, 8.3 nM. Also, the inhibition at 10 µM in [1] is -5%; in assay [2], -1%; in [3], -4%; in assay [4], -14%; in assay [5], -8%; in assay [6] it was 6%. In addition, the inhibition at 10 µM in assay [7] is 1%; in [8], -17%; in assay [9] it was -1%; in assay [10] it was 39%; in assay [11] it was 0%; in assay [12], 12%. Moreover, the inhibition at 10 µM is -8% in assay [13] and 5% in [14].
